Common to all, as to assay type: binding
One experiment concerns the target T1, TNKS2 ARC4 (488–649) (Homo sapiens, UniProt Q9H2K2).
T1 construct: The cell was filled with TNKS2 ARC4 (488–649); His6-GST (cleaved yes); made in house; host or cells: E. coli BL21-CodonPlus (DE3)-RIL
T1 sequence (Q9H2K2 488-649): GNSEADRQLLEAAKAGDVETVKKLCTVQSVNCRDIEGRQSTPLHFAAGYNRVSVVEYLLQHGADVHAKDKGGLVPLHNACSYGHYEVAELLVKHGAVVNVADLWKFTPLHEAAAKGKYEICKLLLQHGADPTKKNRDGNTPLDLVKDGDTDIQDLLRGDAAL
Put plainly: Isothermal titration calorimetry (ITC). Particulars: global analysis n = 5. As for the experimental part: We next used isothermal titration calorimetry (ITC) to confirm the compound 9:TNKS2 ARC4 binding affinity, titrating the fragment (5 mM, 1% DMSO) into TNKS2 ARC4 (200 μM, 1% DMSO).
An ITC200 instrument (MicroCal) was used, fitted with a twisted syringe needle, stirring at 750 rpm. All solutions were degassed using a ThermoVac before use. The reference cell was filled with buffer (200 μL, 25 mM HEPES-NaOH pH 7.5, 100 mM NaCl, 1 mM TCEP, 1% v/v DMSO). The cell was filled with TNKS2 ARC4 (488–649) (200 μL, 200 μM in identical buffer as above). 20 injections (1 × 0.5 μL, then 19 × 2 μL) of compound 9 (5 mM, 1% v/v DMSO in buffer) were performed, with 180 s between injections. Blank correction was performed by titrating compound into buffer alone (25 mM HEPES-NaOH pH 7.5, 100 mM NaCl, 1 mM TCEP, 1% v/v DMSO) using the same injection protocol as above. The first injections from each run were discarded from data analysis. Data were analysed using Origin software with a one-site binding model. Titrations were repeated n = 5. Global analysis was performed using SEDPHAT software.

A further experiment addresses T2, TNKS ARC1 (178–336) (Homo sapiens, UniProt O95271).
T2 construct: TNKS ARC1 (178–336); His6-GST; made in house; host or cells: E. coli
Nature of the experiment: WaterLOGSY NMR assay. Here is the method:
(§1) Fragments were dispensed in duplicate into a 384-well plate (250 nL, 100 mM stock in DMSO). Wells were backfilled with DMSO (2.25 μL). Tankyrase ARC protein (47.5 μL in 25 mM HEPES-NaOH pH7.5, 100 mM NaCl, 2 mM TCEP, 10% D2O; 20 μM final protein concentration in the assay) was added to the samples containing protein; buffer only (47.5 μL) was added to the compound-only samples. Solutions were transferred to 1.7 mm NMR tubes using a Gilson liquid handling system. ^1H NMR spectra were recorded, with the DMSO signal dampened. The bulk water signal at 4.7 ppm was selectively inverted. Data were processed using Bruker Topspin 3.14[66].

The next experiment concerns the target T3, TNKS ARC2–3 (331–645) (Homo sapiens, UniProt O95271).
T3 construct: TNKS ARC2–3 (331–645); His6-GST; made in house; host or cells: E. coli
Nature of the experiment: WaterLOGSY NMR assay. As for the experimental part:
as §1

For a further experiment, the target named is T4, TNKS ARC4 (646–807) (Homo sapiens, UniProt O95271).
T4 construct: TNKS ARC4 (646–807); His6-GST; made in house; host or cells: E. coli
Nature of the experiment: WaterLOGSY NMR assay. Here is the method:
as §1

A further experiment has as its target T5, TNKS ARC5 (799–958) (Homo sapiens, UniProt O95271).
T5 construct: TNKS ARC5 (799–958); His6-GST; made in house; host or cells: E. coli
Put plainly: WaterLOGSY NMR assay. As for the experimental part:
as §1

For a further experiment, the target named is T6, TNKS2 ARC1 (20–178) (Homo sapiens, UniProt Q9H2K2).
T6 construct: TNKS2 ARC1 (20–178); His6-GST; made in house; host or cells: E. coli
Nature of the experiment: WaterLOGSY NMR assay. Here is the method: as §1

For another experiment, the target named is T7, TNKS2 ARC2–3 (173–487) (Homo sapiens, UniProt Q9H2K2).
T7 construct: TNKS2 ARC2–3 (173–487); His6-GST; made in house; host or cells: E. coli
Nature of the experiment: WaterLOGSY NMR assay. As for the experimental part:
as §1

The target of experiment [1] is T8, TNKS2 ARC4 aromatic glycine sandwich (YY536/569AA) (Homo sapiens, UniProt Q9H2K2, Y536A/Y569A).
T8 construct: TNKS2 ARC4 (488–649); His6-GST; made in house; host or cells: E. coli BL21-CodonPlus (DE3)-RIL
Put plainly: T2 relaxation-edited NMR with mutant ARC. An excerpt:
We used three previously designed TNKS2 ARC4 mutant variants[4] to explore potential binding determinants for fragment 9. A WFE591/593/598AAA triple-mutation abrogates three key residues in the “arginine cradle”; YY536/569AA truncates two tyrosine residues that form the “glycine sandwich”, and L560W introduces a bulky residue into the “central patch” that sterically clashes with the TBM peptide (see Fig. 5A,B for locations of the mutated residues). We tested binding of compound 9 to the wild-type and mutant ARCs by ligand-observed NMR, using the relaxation-edited assay (Fig. 5C, Table 4). […] Binding was impaired but not abolished for the “central patch” mutant variant (L560W).
Fragments were dispensed in duplicate into a 384-well plate (250 nL, 100 mM stock in DMSO). […] Solutions were transferred to 1.7 mm NMR tubes using a Gilson liquid handling system. ^1H NMR spectra were recorded, with the DMSO and water signals dampened. […] The average integral for all peaks between 6.0–10.0 ppm was calculated, and the difference between compound-only and compound-plus-protein samples was compared. […] For competitive experiments, 3BP2 16-mer peptide (100 μM) was added, and the spectra were recorded and processed as above. The variability in signal reduction in the relaxation-edited experiment was previously determined as approximately ± 10% (Liu et al., unpublished observations).

Structures are written as SMILES.

T5 sequence (O95271 799-958): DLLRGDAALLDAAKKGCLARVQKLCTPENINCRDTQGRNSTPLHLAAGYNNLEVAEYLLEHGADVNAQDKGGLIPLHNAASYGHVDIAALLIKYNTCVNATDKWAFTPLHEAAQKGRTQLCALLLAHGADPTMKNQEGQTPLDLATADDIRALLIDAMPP
T3 sequence (O95271 331-645): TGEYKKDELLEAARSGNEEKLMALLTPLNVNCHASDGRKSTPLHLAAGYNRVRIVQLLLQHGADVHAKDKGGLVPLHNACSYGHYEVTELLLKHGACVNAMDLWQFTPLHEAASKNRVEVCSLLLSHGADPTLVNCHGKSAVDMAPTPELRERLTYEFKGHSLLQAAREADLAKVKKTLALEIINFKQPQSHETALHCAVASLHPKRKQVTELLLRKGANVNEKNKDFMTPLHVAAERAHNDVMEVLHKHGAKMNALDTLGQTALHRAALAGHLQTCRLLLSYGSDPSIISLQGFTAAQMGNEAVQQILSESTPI
T2 sequence (O95271 178-336): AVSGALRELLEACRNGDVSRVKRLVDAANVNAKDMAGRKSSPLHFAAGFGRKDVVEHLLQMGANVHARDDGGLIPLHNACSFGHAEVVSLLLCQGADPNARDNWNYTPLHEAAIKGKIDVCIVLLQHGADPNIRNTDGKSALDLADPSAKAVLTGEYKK
T4 sequence (O95271 646-807): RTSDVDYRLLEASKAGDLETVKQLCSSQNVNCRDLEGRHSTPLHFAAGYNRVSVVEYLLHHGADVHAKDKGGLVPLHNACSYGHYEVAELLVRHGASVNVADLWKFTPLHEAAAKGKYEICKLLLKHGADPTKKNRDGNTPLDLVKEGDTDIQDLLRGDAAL

One may read the Kd as a measure of binding affinity in units of concentration. A low value points to a tighter complex. In the case of `O=C(NCc1ccco1)c1ccc2nccnc2c1` [compound 9], the Kd at TNKS2 ARC4 (488–649) (compound 5 mM into ARC4 200 μM, 1% DMSO) worked out at 1200 µM. Also, the “ITC stoichiometry (N) compound:TNKS2 ARC4” value at TNKS2 ARC4 (488–649) is listed as 1.1. In addition, the waterLOGSY result at TNKS ARC1 (178–336) is reported as “negative NOE signal”; at TNKS ARC2–3 (331–645), “negative NOE signal”; at TNKS ARC4 (646–807), “negative NOE signal”; on TNKS ARC5 (799–958) it was “negative NOE signal”; on TNKS2 ARC1 (20–178) it was “no NOE”; at TNKS2 ARC2–3 (173–487) it was “negative NOE signal”. In addition, in experiment [1], the “T2 relaxation-edited: reduction of signal integrals” value is listed as 0%.

These data come from paper PMC6911004, “Fragment-based screening identifies molecules targeting the substrate-binding ankyrin repeat domains of tankyrase” (Scientific Reports, 2019).
